The conditions of data set [1]: in vivo; cited from earlier work.
The conditions of data set [2]: cited from earlier work.
Data set [3] concerns IL-1β induced chondrocytes. Kind of data set: Chondroprotective effect: CCK-8 viability of IL-1β induced chondrocytes. Format: cell-based, rat. To be noted: LiCl 10 mM, IL-1β 10 ng/mL, 48 h. As for the experimental part:
The capacity of SLFNP was assessed to protect chondrocytes from deterioration induced by inflammatory cytokines. Chondrocytes were first incubated with SLFNP and then added to the medium 10 ng/mL interleukin-1-beta (IL-1β), a major inflammatory cytokine involved in chronic OA. For comparison, chondrocytes were treated with PBS or LiCl salt (10 mM) before adding IL-1β. In the PBS group, CCK-8 assay found a marked drop of cell viability (37.64% at 48 h). […]

Data set [4] relates to IL-1β induced chondrocytes. In words: Live/dead assay of IL-1β induced chondrocytes. It counts as cell-based, rat. To be noted: vs PBS group, IL-1β 10 ng/mL. The protocol: (§1) Cells were divided into nine groups: (1) Control: chondrocytes treated with SLFNP; (2) IL-1β: chondrocytes treated with 10 ng/mL IL-1β (Gibco, USA) and cultured for 2 days; (3) LiCl+IL-1β: chondrocytes pre-incubated with LiCl for 1 h followed by treatment with 10 ng/mL IL-1β for 2 days; (4) 1 mM SLFNP+IL-1β: chondrocytes pre-incubated with 1 mM SLFNP for 1 h followed by treatment with IL-1β for 2 days; (5) 5 mM SLFNP+IL-1β: chondrocytes pre-incubated with 5 mM SLFNP for 1 h followed by treatment with IL-1β for 2 days; (6) HA+IL-1β: condrocytes pre-incubated with 10 mg/mL HA for 1 h followed by treatment with IL-1β for 2 days; (7) HA+LiCl+IL-1β: chondrocytes pre-incubated with 10 mM LiCl and HA for 1 h followed by treatment with IL-1β for 2 days; (8) HA+1 mM SLFNP+IL-1β: chondrocytes pre-incubated with 1 mM SLFNP and HA for 1 h followed by treatment with IL-1β for 2 days; (9) HA+5 mM SLFNP+IL-1β: chondrocytes pre-incubated with 5 mM SLFNP and HA for 1 h followed by treatment with IL-1β for 2 days.
Cells were treated as the same procedures as described above. Live/dead assays were performed using a live/dead viability assay kit (Invitrogen, USA) after 2 days of culture. Briefly, cells were incubated in a solution containing […] of calcein AM and […] of ethidium homodimer-1 for 40 min at room temperature in the dark. […]

The subject of data set [5] is MMP-13. In words: Immunofluorescence staining of MMP-13 in IL-1β stimulated chondrocytes. To be noted: pre-incubation before IL-1β 10 ng/mL. Format: cell-based, rat. The protocol: as §1
After 2 days of culture, cells in the different treatment groups were washed twice with PBS, fixed in 4% formalin for 20 min, and permeabilized with 0.3% Triton X-100 (WN) in PBS for 10 min. After blocking with 5% BSA in PBS for 1 hour at room temperature, primary MMP-13 antibodies were added (1:200 dilution, Abcam, USA) and incubated at 4° C. overnight. […]

Data set [6] concerns MMP3. In words: qRT-PCR of MMP3 in IL-1β stimulated chondrocytes. It counts as cell-based, rat. Conditions: compared to IL-1β-stimulated cells. The protocol:
as §1
(§2) RNA was isolated from chondrocytes in all groups after 2 days of treatment using an RNA isolation kit (Tiangen Biotechnology). […]

Data set [7] has as its system IL6. In words: qRT-PCR of IL6 in IL-1β stimulated chondrocytes. Format: cell-based, rat. To be noted: compared to IL-1β-stimulated cells. The protocol:
as §1, §2
In general terms: In qPCR the cycle at which signal appears reflects the starting amount.

Data set [8] relates to ADAMTS5. Kind of data set: qRT-PCR of ADAMTS5 in IL-1β stimulated chondrocytes. Conditions: compared to IL-1β-stimulated cells. Format: cell-based, rat. The protocol:
as §1, §2

The subject of data set [9] is COX-2. In words: qRT-PCR of COX-2 in IL-1β stimulated chondrocytes. Format: cell-based, rat. Conditions: compared to IL-1β-stimulated cells. As for the experimental part:
as §1, §2

Data set [10] has as its system iNOS. In words: qRT-PCR of iNOS in IL-1β stimulated chondrocytes. Format: cell-based, rat. To be noted: compared to IL-1β-stimulated cells. The protocol:
as §1, §2

The subject of data set [11] is Sprague-Dawley rats with surgery-induced OA. In words: Macroscopic evaluation of cartilage lesions in rat ACLT OA model. It counts as in vivo. As for the experimental part:
In vivo analysis was performed in Sprague-Dawley rats which had undergone bilateral anterior cruciate ligament transection (ACTL) surgery. One month after the surgery, the animals were randomly sorted into six groups (n=24) and were i.a. injected once per week with the following regimens: SLFNP+HA (1.74 μg Li in 50 μL HA), SLFNP alone (1.74 μg Li in 50 μL PBS), LiCl+HA (3.48 μg Li in 50 μL HA), LiCl alone (3.48 μg in 50 μL PBS), HA alone (50 μL), and PBS (50 μL). For control, a sham-operated group was also studied.
Sprague Dawley Rats (SD rats) were obtained from Guangxi Medical University. […]
After 4 and 8 weeks of treatment, SD rats were sacrificed by intraperitoneal overdose of pentobarbital. […] The observers evaluated the depth of lesions of the articular cartilage on a scale of 0-4 (0=normal-appearing surface, 1=minimal fibrillation or a slight yellow discoloration of the surface, 2=erosion extending into the superficial or middle layers only, 3=erosion extending into the deep layers, and 4=erosion extending to the subchondral bone). The surface area of erosion was calculated with a digital caliper and presented them as mm2, with a higher score indicating greater cartilage damage.

For data set [12] the test system is unchanged. Kind of data set: Histological evaluation (H&E, Safranin O-fast green, OARSI score) in rat ACLT OA model. Format: in vivo. As for the experimental part:
Sprague Dawley Rats (SD rats) were obtained from Guangxi Medical University. All experiments were conducted in accordance with the guidelines of the Animal Committee and with ethics approval from the Guangxi Medical University Animal Care and Use Committee, China (Protocol Number: 2015-11-27). A total of 152 male SD rats with a weight of 180±20 g were used. After anesthesia, 144 randomly selected rats underwent bilateral anterior cruciate ligament transection (ACLT) on the right knee joints to induce OA. Another 8 rats received sham operations (Sham group), in which the articular cavity was opened and sutured with the short anterior cruciate ligament intact. After surgery, all animals were returned to their cages, with the limbs not immobilized. One month after the surgery, the animals were randomly sorted into […] groups (n=24) and were i.a. injected once per week with the following regimens for 8 weeks: SLFNP+HA (1.74 μg Li in 50 μL 10 mg/mL HA), SLFNP alone (1.74 μg Li in […] PBS), LiCl+HA (3.48 μg Li in 50 μL 10 mg/mL HA), LiCl alone (3.48 μg in 50 μL PBS), HA alone (50 μL), and PBS (50 μL). In the sham groups, no other procedures were conducted. The animals in the six groups were sacrificed at 4 and 8 weeks after therapy (n=12). […]

In the case of hyaluronic acid [HA], the “time for i.a. injected HA to fully degrade in the joint” value in [1] is ~ 60 h.

On to `[Li]` [lithium], for which the “serum lithium toxicity threshold” value in data set [2] was 1.5 mM.

In the case of `[Cl-].[Li+]` [LiCl, lithium chloride], the cell viability (in general, a read-out of living cells in per cent, often relative to untreated cells) in [3] came out at 80.77%. Besides, in data set [4], the “positive ethidium homodimer-1 staining” value is reported as “significantly reduced level of positive staining”. Besides, in [5], the “MMP13 expression (immunofluorescence)” value is reported as “upregulation was attenuated”. Further, the “reduction of mRNA level of MMP3” value in data set [6] was 57.45%. The “reduction of mRNA level of IL6” value in data set [7] worked out at 54.94%. For the same compound, the “reduction of mRNA level of ADAMTSS” value in data set [8] is listed as 59.77%. Also, in data set [9], the “reduction of mRNA level of COX-2” value is listed as 68.29%. Besides, the “reduction of mRNA level of iNOS” value in data set [10] is on record as 57.66%. For the same compound, the average lesion area was 8.5 mm2 in data set [11] (Week 4, i.a. once per week) and 10.2 mm2 in data set [11] (Week 8, i.a. once per week). Moreover, the “reduction of OARSI score compared to the PBS control” value is listed as 19.28% in [12] (Week 4) and 11.95% in data set [12] (Week 8).
